Assay results reported in publication PMC5453399, “Microfluidic Mobility Shift Assay for Real-Time Analysis of Peptide N-Palmitoylation” (Slas Discovery, 2017).

Target: T1, Hhat (Homo sapiens, UniProt Q5VTY9)
T1 construct: Hhat-FLAG-His8 (C-terminal tags kept), stably expressed in HEK293a cells; DDM-solubilized membrane fraction P100(sol) enriched by Ni-NTA
Assay: microfluidic mobility shift assay, stopped
Type: biochemical

T1 sequence (Q5VTY9 whole entry): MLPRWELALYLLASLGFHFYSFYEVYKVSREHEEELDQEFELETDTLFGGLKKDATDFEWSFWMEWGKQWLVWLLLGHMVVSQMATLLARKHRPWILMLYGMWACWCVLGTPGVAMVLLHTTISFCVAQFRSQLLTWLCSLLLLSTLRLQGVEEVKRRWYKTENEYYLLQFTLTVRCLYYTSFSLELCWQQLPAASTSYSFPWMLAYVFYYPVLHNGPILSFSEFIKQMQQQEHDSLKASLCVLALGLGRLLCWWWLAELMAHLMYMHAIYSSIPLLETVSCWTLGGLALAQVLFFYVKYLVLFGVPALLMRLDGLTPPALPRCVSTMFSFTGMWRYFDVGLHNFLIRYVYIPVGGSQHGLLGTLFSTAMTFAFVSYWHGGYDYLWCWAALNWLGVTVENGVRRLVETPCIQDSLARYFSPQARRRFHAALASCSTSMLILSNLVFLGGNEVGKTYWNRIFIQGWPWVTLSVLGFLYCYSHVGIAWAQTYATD

IC50: 8.32 ± 3.69 µM
Structure (SMILES): CCC(C)CNCC(=O)N1CCc2sccc2C1c1cccc(C)c1 (stereo not shown) [RUSKI-101]
